# Where “and” joins values, the source holds several entries; their conditions need not be identical. Identical values can stand only once. Like-named read-outs stand apart in the source and are kept apart here.
# How the values were obtained:
# [1] = system: T. cruzi intracellular amastigotes; test: In vitro anti-T. cruzi intracellular amastigote growth inhibition assay (tdTomato fluorescence over 72 hours, Vero cells); type: cell-based, Trypanosoma cruzi; details: Trypanosoma cruzi, Vero
# Method: (§1) The in vitro anti-T. cruzi amastiogote activity assay was performed and optimized based on the protocol described previously. The change in tdTomato fluorescence intensity was determined as a measurement of growth over 72 hours of culture. For assaying drug effects on extracellular amastigotes, trypomastigotes were collected from infected Vero cell cultures and converted in acidic media as previously described. Amastigotes (50,000/well) were incubated with 2-fold serial dilutions of compounds for 48 hours. The ATP production was used as an indication of growth in this case, and was measured by ATPlite Luminescence ATP Detection Assay System (PerkinElmer). Both fluorescence and luminescence were read using a BioTek Synergy Hybrid Multi-Mode reader equipped with the software Gene5 v 2.0 (BioTek). The dose-response curve was generated by […] analysis with GraphPad Prism v9.4.0 (GraphPad Software).
# [2] = in vivo
# [3] = system: T. cruzi Brazil strain; design: method as in PMID 23945371; details: cited from earlier work
# [4] = system: broad array of mammalian enzymes, receptors and ion channels; test: Preliminary safety pharmacology panel; type: binding
# [5] = In vitro micronucleus study; type: cell-based
# [6] = system: TcCBP KO T. cruzi intracellular amastigotes; test: microbe, parasite or virus in culture; type: cell-based; details: Trypanosoma cruzi, read-out: TcCBP KO IC50
# Method: as §1
# The CBPs knockout was produced using ribonucleoprotein (RNP) complexes as previously described. Briefly, Brazil tdTomato strain epimastigotes were electroporated with RNP complexes containing SaCas9 and an sgRNA targeting CBP gene TcBrA4_0048170, plus a repair template containing stop codons in all three reading frames and the M13 sequence for use as a PCR anchor. The sgRNA targeted the ‘[…]” sequence. After 2 days of recovery, single-cell clones were derived by depositing epimastigotes into a 96-well plate at a density of 0.5 cell/well by using a MoFlo Astrios EQ cell sorter (Beckman Coulter). DNA isolation was performed for clones, and primer pair of 5’-[…]-3’ and 5’- […] -3’ was used for amplifying the wild type allele, while primer pair of M13-F: 5’- […] -3’ and 5’- […] -3’ was used for amplifying the mutant allele.
# [7] = High dose 7-day toxicology study with exposure; details: 7-day toxicology studies / rats
# [8] = system: representative cytochrome P450 enzymes; test: Cytochrome P450 inhibition; type: in vitro ADME; details: 10 uM
# [9] = system: CPSF3-OE T. cruzi intracellular amastigotes; test: microbe, parasite or virus in culture; type: cell-based; details: Trypanosoma cruzi, read-out: CPSF3-OE IC50, intracellular amastigotes
# Method: as §1
# The CPSF3 gene was amplified using primers ‘[…]’ and ‘[…]’, and integrated into the pTrex vector [47] by NEBuilder HiFi DNA assembly (New England Biolabs). The construct of pTrex-CPSF was then transfected into Brazil tdTomato epimastigotes and selected by 60ug/ml blasticidin.
# To confirm the CPSF overexpression in the selected transfectants, RNA was extracted as previously described and converted to cDNA using SuperScript Reverse Transcriptase (Invitrogen). Quantitative PCR reactions were performed in triplicate on the C1000 Touch Bio-Rad CFX96 real-time PCR detection system for CPSF using primer sets CPSF-1 (5'-[…]-3' and 5'-[…]-3') and CPSF-2 (5'-[…]-3' and 5'-[…]-3') in both control and CPSF over-expressing parasites, and the expression level was normalized to tubulin which was amplified using primers: ‘[…]’ and ‘[…]’.
# [10] = system: T. cruzi Brazil strain; test: Mouse cure assays (daily oral treatment, immunosuppression, qPCR of skeletal muscle, blood microscopy, hemoculture); type: in vivo, C57BL/6 mice; details: individual mice
# Method: Male or female C57BL/6 mice were intraperitoneally infected with 10^4 trypomastigotes of the Brazil strain. Mouse infection was confirmed at 25-30 dpi by detection of CD8^+ T cells specific against the T. cruzi TSKb20 peptide in blood. Compounds resuspended in 1% carboxymethyl cellulose and 0.1% Tween 80, were administered daily by gavage at the specified concentrations. In order to optimally detect persistent infection, immune responses in the mice were suppressed by intraperitoneal injection of four doses of cyclophosphamide every 2-3 days (200 mg/kg/day), beginning one week after the end of therapeutic treatment. At the end of the immunosuppression regimen, peripheral blood was checked under light microscope for parasites and cultured in LDNT media. Mouse skeletal muscle samples were obtained at the end of the immunosuppression and processed for T. cruzi-DNA detection by qPCR as previously described.
# [11] = Ames study
# [12] = system: T. cruzi; details: cited from earlier work
# [13] = system: T. cruzi CL strain in Vero cells; test: RNA-seq: parasite mRNA relative to host cell (Vero) mRNA; type: cell-based, Trypanosoma cruzi
# Method: The drug concentration used for treatment was set at 5 times the IC50. Samples were collected at several time points for RNA extraction as previously described. rRNA-depleted RNA library construction and RNA sequencing using Illumina Nextseq 75PE was carried out by Georgia Genomics and Bioinformatics Core (GGBC, University of Georgia, Georgia). […] The mapping rate was quantified by HTseq v0.6.1 [51].
# [14] = in vitro, Fig. 1a, Extended Data Fig. 1a, read-out: T. cruzi IC50
smiles,measurement,setting,value
O=C(Nc1ccc2c(c1)B(O)OC2)c1ccc(F)cc1C(F)(F)F [AN4169],IC50,[1]; [14],350 nM
same,rodent tolerability,[2],insufficient therapeutic margin
same,cure of infected mice,[3]; mice infected with the T. cruzi Brazil strain,100%
Cc1c(C(=O)N[C@H](C(=O)OCc2ccc(F)cc2)C(C)(C)O)ccc2c1B(O)OC2 [AN14817],"affinity for mammalian enzymes, receptors and ion channels",[4],little to no affinity
same,"genotoxicity, in vitro micronucleus",[5],non-genotoxic
same,IC50,[6],2200 nM
same,activity at 0.00407 µM,"[1]; 72 h, read-out: % of maximum, WT, [uM] -2.39 [sic], single replicates",79%
same,IC50,"[1]; read-out: WT IC50, WT intracellular amastigotes, control of CPSF3-OE comparison",6.3 nM
same,IC50,"[1]; read-out: WT IC50, WT intracellular amastigotes, control of TcCBP KO comparison",6.3 nM
same,IC50,[1]; [14],12 nM
same,dose proportionality of exposure,[7],non-dose proportional exposure
same,inhibition of representative cytochrome P450 enzymes,[8],did not demonstrate significant inhibition
same,IC50,[9],24.8 nM
same,Parasite equivalent/ 50 ng of DNA of skeletal muscle,"[10]; Fig. 3b, mice treated for 40 days",0.12 Parasite equivalent/ 50 ng of DNA and 0.09 Parasite equivalent/ 50 ng of DNA and 0.00383 Parasite equivalent/ 50 ng of DNA and 0.0341 Parasite equivalent/ 50 ng of DNA and 0.00725 Parasite equivalent/ 50 ng of DNA and 0.00351 Parasite equivalent/ 50 ng of DNA and 0.0145 Parasite equivalent/ 50 ng of DNA and 0.17 Parasite equivalent/ 50 ng of DNA
same,Parasite equivalent/ 50 ng of DNA of skeletal muscle,"[10]; Fig. 3c, mice treated for 20 days",0.30 Parasite equivalent/ 50 ng of DNA and 0.59 Parasite equivalent/ 50 ng of DNA and 0.42 Parasite equivalent/ 50 ng of DNA and 0.29 Parasite equivalent/ 50 ng of DNA and 0.40 Parasite equivalent/ 50 ng of DNA
same,"genotoxicity, Ames",[11],non-genotoxic
"O=C(Cn1ccnc1[N+](=O)[O-])NCc1ccccc1 [benznidazole, reference compound]",failures in treatment trial,"[12]; T. cruzi-infected NHPs, ref Tarleton, et al., in preparation",> 60%
same,cure rate,"[12]; cyno macaques, ref unpublished result of the authors",~ 30%
same,RNA-seq reads mapped to African green monkey,[13]; 0hpt,52
same,RNA-seq reads mapped to T.cruzi CL Brener,[13]; 0hpt,17
same,RNA-seq reads unmapped,[13]; 0hpt,31
same,RNA-seq reads mapped to African green monkey,[13]; 12hpt,61
same,RNA-seq reads mapped to T.cruzi CL Brener,[13]; 12hpt,14
same,RNA-seq reads unmapped,[13]; 12hpt,25
same,RNA-seq reads mapped to African green monkey,[13]; 24hpt,62
same,RNA-seq reads mapped to T.cruzi CL Brener,[13]; 24hpt,12
same,RNA-seq reads unmapped,[13]; 24hpt,27
same,cure with 20 days of treatment,[3]; mice,only partially effective in generating cure

# From PMC9519446, “Discovery of an Orally Active Benzoxaborole Prodrug Effective in the Treatment of Chagas Disease in Non-human Primates” (Nature microbiology, 2022)
